The values that follow come from US8148373B2, “Compounds” (AstraZeneca AB, priority 2008, dated 2012).

For test [1], the target named is T1, Adrenergic β2 (H292 cells) (Homo sapiens, UniProt P07550).
T1 construct: endogenous in cells; host or cells: H292 cells
The test is described as follows: Assay for Adrenergic β2 Mediated cAMP Production (concentration response, AlphaScreen cAMP detection). Type of test: cell-based. Particulars: for EC50: cAMP production, 60 minutes at room temperature, 300 μM rolipram, read-out: β2 pEC50 (converted); for β2 Intrinsic activity: fraction relative to the maximum activity determined for formoterol. The method, boiled down: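 Intrinsic activity is relative to the per-experiment formoterol maximum, with pEC50 from a four-parameter logistic fit of cAMP levels quantified by AlphaScreen against standards. Cells (H292) got 300 μM rolipram for 10 min, then compound for 60 min at room temperature, 1% DMSO final.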
In general terms: In Alpha technology, singlet oxygen from a donor bead excites a nearby acceptor bead.

For test [2], the target named is T2, human muscarinic acetylcholine M3 receptor (M3-ACh) (Homo sapiens, UniProt P20309).
T2 construct: expressed in transfected cells; host or cells: CHO-K1 (Chinese Hamster Ovary) cell membranes
The test is described as follows: Muscarinic 3 Receptor Binding Assay ([3H]NMS competition, SPA). Particulars: [3H]NMS 0.1 nM, CHO-K1 cell membranes, 16 hours at room temperature; read-out: M3 pIC50 (converted). The method, boiled down:
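Competition SPA binding of 0.1 nM [3H]NMS (quarter Kd) to membranes from CHO-K1 cells expressing human M3, in 20 mM HEPES pH 7.4, 5 mM MgCl2, 1% DMSO. Incubated 16 h at room temperature; non-specific binding with 1 µM atropine. pIC50 from 50% reduction of specific binding.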

T2 sequence (P20309 whole entry): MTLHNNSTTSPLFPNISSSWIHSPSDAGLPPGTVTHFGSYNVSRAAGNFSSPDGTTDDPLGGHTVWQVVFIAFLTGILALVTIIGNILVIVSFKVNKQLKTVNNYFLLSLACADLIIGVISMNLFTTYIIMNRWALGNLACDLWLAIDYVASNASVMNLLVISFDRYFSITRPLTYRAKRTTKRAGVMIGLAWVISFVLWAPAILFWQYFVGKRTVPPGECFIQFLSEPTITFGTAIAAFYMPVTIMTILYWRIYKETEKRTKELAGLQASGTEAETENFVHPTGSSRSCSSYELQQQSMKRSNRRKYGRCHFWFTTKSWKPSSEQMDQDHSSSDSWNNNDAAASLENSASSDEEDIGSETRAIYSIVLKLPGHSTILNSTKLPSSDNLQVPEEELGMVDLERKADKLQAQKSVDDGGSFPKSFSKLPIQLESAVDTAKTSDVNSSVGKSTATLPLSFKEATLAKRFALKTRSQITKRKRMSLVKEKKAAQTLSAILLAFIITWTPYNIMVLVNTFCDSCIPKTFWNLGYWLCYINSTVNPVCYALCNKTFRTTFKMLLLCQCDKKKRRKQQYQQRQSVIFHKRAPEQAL
T1 sequence (P07550 whole entry): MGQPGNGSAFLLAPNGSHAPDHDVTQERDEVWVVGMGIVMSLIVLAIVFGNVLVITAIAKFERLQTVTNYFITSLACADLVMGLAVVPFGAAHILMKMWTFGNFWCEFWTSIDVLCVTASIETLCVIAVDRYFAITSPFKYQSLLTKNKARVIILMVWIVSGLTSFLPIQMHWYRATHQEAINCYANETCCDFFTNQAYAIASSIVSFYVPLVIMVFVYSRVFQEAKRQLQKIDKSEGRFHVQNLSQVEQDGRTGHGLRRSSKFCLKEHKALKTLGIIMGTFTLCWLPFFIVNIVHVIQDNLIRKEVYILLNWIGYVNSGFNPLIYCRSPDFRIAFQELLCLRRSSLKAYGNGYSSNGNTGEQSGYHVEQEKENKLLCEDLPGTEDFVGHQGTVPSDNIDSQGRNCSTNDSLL

Turning to `O=C(c1csc(C(F)(F)F)n1)N1CCOC2(CCN(Cc3cccc(CCNC[C@H](O)c4ccc(O)c5[nH]c(=O)sc45)c3)CC2)C1` [Example 26, (R)-4-Hydroxy-7-(1-hydroxy-2-(3-((4-(2-(trifluoromethyl)thiazole-4-carbonyl)-1-oxa-4,9-diazaspiro[5.5]undecan-9-yl)methyl)phenethylamino)ethyl)benzo[d]thiazol-2(3H)-one ditrifluoroacetate], in test [1], the EC50 is 12.6 nM and the “β2 Intrinsic activity” value is reported as 0.8. In test [2], the IC50 is 0.631 nM.
In the same order, the values of `Cc1nc(C(=O)N2CCOC3(CCN(Cc4cc(F)cc(CCNC[C@H](O)c5ccc(O)c6[nH]c(=O)sc56)c4)CC3)C2)cs1` [Example 19, (R)-7-(2-(3-Fluoro-5-((4-(2-methylthiazole-4-carbonyl)-1-oxa-4,9-diazaspiro[5.5]undecan-9-yl)methyl)phenethylamino)-1-hydroxyethyl)-4-hydroxybenzo[d]thiazol-2(3H)-one ditrifluoroacetate] are 3.16 nM, 0.9 and 1.58 nM.
In the same order, the values of `CC(C)c1cc(C(=O)N2CCOC3(CCN(Cc4cccc(C[C@@H](C)NC[C@H](O)c5ccc(O)c6[nH]c(=O)ccc56)c4)CC3)C2)cs1` [Example 276, 8-Hydroxy-5-((R)-1-hydroxy-2-((R)-1-(3-((4-(5-isopropylthiophene-3-carbonyl)-1-oxa-4,9-diazaspiro[5.5]undecan-9-yl)methyl)phenyl)propan-2-ylamino)ethyl)quinolin-2(1H)-one ditrifluoroacetate] are 39.8 nM, 1 and 2 nM.
On to `CC(C)c1nc(C(=O)N2CCOC3(CCN(Cc4cc(CCNC[C@H](O)c5ccc(O)c6[nH]c(=O)sc56)ccc4Cl)CC3)C2)cs1` [Example 61, (R)-7-(2-(4-Chloro-3-((4-(2-isopropylthiazole-4-carbonyl)-1-oxa-4,9-diazaspiro[5.5]undecan-9-yl)methyl)phenethylamino)-1-hydroxyethyl)-4-hydroxybenzo[d]thiazol-2(3H)-one ditrifluoroacetate], for which, in test [1], the EC50 is 63.1 nM and the “β2 Intrinsic activity” value was found to be 0.9. Besides, the IC50 in test [2] is 5.01 nM.
Consider `CC(C)Cc1nc(C(=O)N2CCOC3(CCN(Cc4cccc(CCNC[C@H](O)c5ccc(O)c6[nH]c(=O)sc56)c4F)CC3)C2)cs1` [Example 72, (R)-7-(2-(2-Fluoro-3-((4-(2-isobutylthiazole-4-carbonyl)-1-oxa-4,9-diazaspiro[5.5]undecan-9-yl)methyl)phenethylamino)-1-hydroxyethyl)-4-hydroxybenzo[d]thiazol-2(3H)-one ditrifluoroacetate], for which, in test [1], the EC50 is 7.94 nM and the “β2 Intrinsic activity” value worked out at 0.8. Besides, the IC50 in test [2] was 10 nM.
For `Cc1csc(C(=O)N2CCOC3(CCN(Cc4cc(F)cc(CCNC[C@H](O)c5ccc(O)c6[nH]c(=O)sc56)c4)CC3)C2)c1` [Example 60, (R)-7-(2-(3-Fluoro-5-((4-(4-methylthiophene-2-carbonyl)-1-oxa-4,9-diazaspiro[5.5]undecan-9-yl)methyl)phenethylamino)-1-hydroxyethyl)-4-hydroxybenzo[d]thiazol-2(3H)-one ditrifluoroacetate], in test [1], the EC50 was 5.01 nM and the “β2 Intrinsic activity” value amounted to 1. For the same molecule, the IC50 in test [2] was 3.98 nM.
On to `CCc1ccc(C(=O)N2CCOC3(CCN(Cc4cccc(CCNC[C@H](O)c5ccc(O)c6[nH]c(=O)ccc56)c4)CC3)C2)s1` [Example 12, (R)-5-(2-(3-((4-(5-Ethylthiophene-2-carbonyl)-1-oxa-4,9-diazaspiro[5.5]undecan-9-yl)methyl)phenethylamino)-1-hydroxyethyl)-8-hydroxyquinolin-2(1H)-one ditrifluoroacetate], for which, in test [1], the EC50 is 10 nM and the “β2 Intrinsic activity” value is listed as 1. Moreover, the IC50 in test [2] is 1 nM.
